Measurements: patent US9168295B2, “Vaccine peptide combinations” (Circassia Limited, priority 2007, dated 2015)
Entries after “also recorded” stand apart in the source; their conditions may differ. Like-named read-outs stand apart in the source and are kept apart here. No end group written: not given here.

Tested on: peripheral blood basophils (PBMC) from cat allergic subjects
Experiment: Histamine release assay and histamine ELISA
Format: cell-based, human
Conditions: for frequency of histamine release, in words: comparison among individual peptides
Protocol: Histamine release from fresh peripheral whole blood from cat allergic subjects was evaluated. Peripheral blood basophils were used as a surrogate for tissue mast cells which were not practical to assay. Blood was incubated in vitro with 9 individual peptides from the sequence of the major cat allergen Fel d 1 (SEQ ID NOS: 1, 2, 3, 4, 5, 6, 7, 11 and 12). These peptides were selected as potential T cell epitopes following peptide-MHC binding assays as explained in Example 1. Additionally, responses to a preferred mixtures of a mixture of 7 peptides identified in Example 1 were analysed. The tested preferred mixture of 7 peptides consisted of the peptides of SEQ ID NOS: 1 to 7. Histamine release in response to whole cat dander allergen extract acted as a positive control.
Peripheral blood mononuclear cells (PBMC) were isolated from the heparinised blood sample obtained from the subject. PBMC's were isolated by Ficoll-Hypaque density gradient separation. Once isolated, the cells were used in the cell proliferation assay, histamine release and ELISA assay and the cytokine release assay.
Assays were performed on PBMC (which contain basophils). Each peptide and combinations of peptides was compared with whole allergen molecules in a histamine release assay. Histamine concentrations were measured by ELISA.
The assay required 3×10^6 PBMC's per subject. The assay was performed using the Immunotech Histamine Release Immunoassay kit according to the manufacturer's instructions. Following the histamine release assay, acylated samples were tested by histamine ELISA. The histamine ELISA used 50 μl of the 100 μl acylated sample generated by the histamine release assay. The remaining 50 μl of sample was retained, by freezing at −20° C. until the data analysis section of the ELISA has been completed. Once the results had been analysed and the ELISA performed in a satisfactory manner, the samples were discarded.
Peptides were assayed for their ability to induce histamine release over a 5 log10 range (10 μg/ml to 1 ng/ml). The concentration range assayed was selected based on theoretical in vivo doses of peptide that may be achieved during therapy. For example, a 10 μg dose of peptide entering a blood volume of 5 litres, would result in a blood concentration of 2 ng/ml (2×10^−6 mg/ml), at the lower end of the histamine release assay dose range. Whole cat dander extract (C.B.F. LETI) was used as a positive control for release over a slightly higher concentration range (100 μg to 10 ng/ml). Single measurements (i.e. not duplicate or triplicate) were performed for each dilution. One duplicate blood sample was assayed for spontaneous histamine release and the mean value of these samples was subtracted from all peptide/allergen results.
After completion of the histamine ELISA, individual histamine levels were determined by interpolation for the standard curve generated in the ELISA assay. Results from samples were adjusted to allow for any dilution of the samples.
Histamine release was considered positive if (a) the highest concentration of peptide alone induced release of 10% or more of the total release value or (b) if two consecutive values were 10% or more of the total release. […] Of these, 6/81 (7.4%) had not positive control release to whole cat allergen extract.

## AVQNTVEDLKLNTLGR [MLA16, AVQNTVEDLKLNTLGR]
  frequency of histamine release, in words: most commonly released histamine; also recorded: the most frequent basophil histamine release responses; also recorded: most frequently associated with histamine release; also recorded: caused most frequent release; also recorded: gave the highest histamine release
Of 81 subjects
  number of individuals in whom histamine release was detected: 11

## RILKNCVDAKMTEEDKE [MLA05, RILKNCVDAKMTEEDKE]
  number of individuals in whom histamine release was detected: 1

## ISSSKDCMGEAVQNTV [MLA15, ISSSKDCMGEAVQNTV]
  frequency of histamine release, in words: most commonly released histamine; also recorded: the most frequent basophil histamine release responses; also recorded: gave the highest histamine release
Individual subject
  Comments on histamine release: MLA15 JUST ABOVE THE 10% CUT OFF
Of 81 subjects
  number of individuals in whom histamine release was detected: 7

## CC(C)C[C@H](NC(=O)[C@@H](NC(=O)[C@@H](NC(=O)[C@@H]1CCCN1C(=O)[C@H](CC(C)C)NC(=O)[C@H](C)NC(=O)[C@H](CCCCN)NC(=O)[C@H](Cc1ccc(O)cc1)NC(=O)[C@H](CCC(N)=O)NC(=O)[C@H](C)NC(=O)[C@@H](NC(=O)[C@H](CCC(N)=O)NC(=O)[C@@H](N)CCC(=O)O)C(C)C)C(C)C)C(C)C)C(=O)N[C@@H](CCC(=O)O)C(=O)N[C@@H](CC(N)=O)C(=O)N[C@@H](C)C(=O)O [MLA03, EQVAQYKALPVVLENA]
Of 81 subjects
  number of individuals in whom histamine release was detected: 6

## TAMKKIQDCYVENGLI [MLA12, TAMKKIQDCYVENGLI]
Of 81 subjects
  number of individuals in whom histamine release was detected: 6

## KALPVVLENARILKNCV [MLA04, KALPVVLENARILKNCV]
Of 81 subjects
  number of individuals in whom histamine release was detected: 6

## SRVLDGLVMTTISSSK [MLA14, SRVLDGLVMTTISSSK]
Of 81 subjects
  number of individuals in whom histamine release was detected: 2

## KENALSVLDKIYTSPL [MLA07]
  number of individuals in whom histamine release was detected: 6
